Source: patent US8852587B2 (priority 2008, dated 2014)
Read-outs that look alike come from different tables or passages of the source.

Target: PrP^Sc (Mus musculus, UniProt P04925)
Assay type: binding
[1] = pull-down, compared to peptide LH3
[2] = pull-down, compared to peptide LH3 (CDR3H)
[3] = affinity for PrPSc pulldown compared to peptide LH3 (CDR3H)

Chain of PrP^Sc (P04925 23-230 limits assumed): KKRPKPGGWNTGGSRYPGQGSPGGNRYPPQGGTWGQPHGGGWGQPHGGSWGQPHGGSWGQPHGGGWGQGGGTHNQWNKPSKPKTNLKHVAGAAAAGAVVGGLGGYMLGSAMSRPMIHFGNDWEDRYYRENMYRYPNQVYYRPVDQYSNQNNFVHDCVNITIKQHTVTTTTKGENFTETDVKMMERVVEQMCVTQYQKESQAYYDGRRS

YFCARWNWERDAMRYWG [LH3R14]
Specificity: PrP^Sc

YFCARWNWEADAMDYWG [LH3A10]
Specificity [1]: binds to PrP^C | Specificity [2]: PrP^C

YFCARWAWERDAMDYWG [LH3A7]
Affinity [3]: (+) | change of affinity for PrP^Sc [1]: slightly increase affinity for PrP^Sc | Specificity [2]: PrP^Sc

YFCARWNWARDAMDYWG [LH3A9]
Specificity: PrP^Sc

YFAARWNWERDAMDYWG [LH3A3]
Specificity: PrP^Sc

YFCARANWERDAMDYWG [LH3A6]
Specificity: PrP^Sc

H-YFCARWNWERDAMDYWG-OH [CDR3H]
Affinity: 0 | Specificity: PrP^Sc

YFCARWNAERDAMDYWG [LH3A8]
Specificity: PrP^Sc

YFCARWNWRRDAMDYWG [LH3R9]
Affinity [3]: (+) | change of affinity for PrP^Sc [1]: slightly increase affinity for PrP^Sc | Specificity [2]: PrP^Sc

YFCADWNWERDAMDYWG [LH3D5]
Specificity: PrP^Sc | change of affinity for PrP^Sc: slightly decreases affinity for PrP^Sc

YFCARWNWERDAADYWG [LH3A13]
Affinity [3]: + | change of affinity for PrP^Sc [1]: increase affinity for PrP^Sc | Specificity [2]: PrP^Sc

YFCARWNWERAAMDYWG [LH3A11]
Specificity: PrP^Sc

YFCARWNWERDAMDAWG [LH3A15]
Specificity: PrP^Sc

YFCAAWNWERDAMDYWG [LH3A5]
Specificity: PrP^Sc

YFCARWNWEDDAMDYWG [LH3D10]
Affinity: (+) | Specificity: PrP^Sc | change of affinity for PrP^Sc: slightly increase affinity for PrP^Sc

YFCARWNWERRAMDYWG [LH3R11]
Affinity [3]: + | change of affinity for PrP^Sc [1]: increase affinity for PrP^Sc | Specificity [2]: PrP^Sc

YFCARWNWERDAMAYWG [LH3A14]
Affinity [3]: (+) | change of affinity for PrP^Sc [1]: slightly increase affinity for PrP^Sc | Specificity [2]: PrP^Sc
